Laboratory results taken from US11338012B2, “BRAF-based polypeptides for treatment of cancer” (UNIVERSITY OF THE SCIENCES, priority 2019, dated 2022).
Where no end group is shown, it is not given here.

Assays:
[1] = system: MAPK signaling in HEK293 cells overexpressing wild-type BRAF or BRAF^G469A; test: Cell-based synergy assay of TAT-braftide with ATP-competitive inhibitors in HEK293 cells overexpressing BRAF^WT or BRAF^G469A
Procedure: IC50 values were obtained from a dose-response curve (4-parameter logistic equation) in Origin, from three independent experiments. […] Western blots are representative of at least three independent experiments.
Cell lysates were subjected to immunoblotting for the indicated proteins.
HEK293 cells were plated at one million cells per 2 mL :DMEM supplemented with 10% FBS and 1% L-glutarnine. These cells were incubated at 37° C. with 5% CO2 for 24 hours or until the cells reach a confluency of 40-60%. DNA (1-3 μg) was mixed with PEI-MAX in a 1:3 ratio in Opti-MEM at RT for ˜25 minutes and added onto the cells with fresh media. After 48 hrs, the cells were washed with cold PBS, harvested, lysed with 4% SDS and homogenized. […] The cells were then washed twice with PBS, lysed as above and quantified with the BCA protein assay. Equal amounts of cell lysates were loaded for immunoblotting and then probed for relevant proteins. […] Cells were washed twice with PBS and processed as above. Protein concentrations were determined with BCA assays for immunoblotting.
The efficacy of current ATP-competitive BRAF inhibitors is limited to BRAF^V600E that signals as a monomer.

[2] = system: BRAF^WT/G469A kinase activity in HEK293 cells; test: Immunoblotting of HEK293 cells transiently transfected with BRAF^WT/G469A (pMEK, BRAF, MEK levels); format: cell-based; details: 0-100 μM, 4 hrs
Procedure: FIGS. 2A-2C illustrate TAT-tagged Braftide inhibits BRAF^WT/G469A kinase activity in HEK293 cells. HEK293 cells transiently transfected with BRAF^WT/G469A were treated with TAT-braftide or TAT peptide at the indicated concentrations (0, 10, 25, 50, 75, and 100 μM) for 4 hrs. Cell lysates were subjected to immunoblotting with the indicated antibodies: anti-BRAF, anti-pMEK, and anti-Actin. FIG. 2A illustrates effect of TAT-braftide on BRAF^WT/G469A kinase activity in HEK293 cells. FIG. 2B illustrates effect of TAT control peptide on BRAF^WT/G469A kinase activity in HEK293 cells. Western blots are representative of at least three independent experiments. The band intensities from the Western Blots were quantified in ImageJ. FIG. 2C illustrates confocal microscopy images of HEK293 cells treated with 25 μM braftide-Cy3 for 2 hr and stained with FLAG antibody for BRAF.
HEK293 cells were plated at one million cells per 2 mL :DMEM supplemented with 10% FBS and 1% L-glutarnine. These cells were incubated at 37° C. with 5% CO2 for 24 hours or until the cells reach a confluency of 40-60%. DNA (1-3 μg) was mixed with PEI-MAX in a 1:3 ratio in Opti-MEM at RT for ˜25 minutes and added onto the cells with fresh media. After 48 hrs, the cells were washed with cold PBS, harvested, lysed with 4% SDS and homogenized. For peptide assays, 48 hrs post-transfection, cells were treated with TAT-Braftide/TAT control in reduced serum media at the indicated concentrations for 4 hrs. The cells were then washed twice with PBS, lysed as above and quantified with the BCA protein assay. Equal amounts of cell lysates were loaded for immunoblotting and then probed for relevant proteins. […] Protein concentrations were determined with BCA assays for immunoblotting.
Braftide was conjugated with the TAT sequence ([…]; SEQ ID NO:2), a cell-penetrating peptide widely used in peptide drugs. […] The activity of BRAF was quantified by probing for phospho-MEK1/2. […] A Cy3-tagged version of braftide was synthesized and evaluated for its ability of crossing the plasma membrane using immunofluorescence experiments. […]

[3] = system: HCT-15 cells; test: WST cell viability assay, HCT-15; format: cell-based; details: 48 hr
Procedure: (§1) Western blots are representative of at least three independent experiments. […] Cell viability was determined through the WST assay according to manufacturer's instructions. IC50 values were obtained from a dose-response curve (4-parameter logistic equation) in Origin, from three independent experiments.
(§2) Cells were seeded onto poly-lysine coated, clear-bottomed, 96-well plates at 15000 cells per well. […] Upon 48 hr treatment, cell viability was determined through the WST cell viability assay. According to manufacturers' instructions, 10 μL of the WST reagent was added to each well and incubated at 37° C. for 4 hrs. Absorbance readings for the plate were then taken at 450 nm in a Biotek plate reader.

[4] = system: HCT116 cells; test: WST cell viability assay, HCT116; format: cell-based; details: 48 hr
Procedure: as §1, §2

[5] = target: T1, BRAF^WT in HEK293 cells (Homo sapiens, UniProt P15056); test: BRAF degradation: bortezomib rescue and cycloheximide half-life in HEK293 cells; format: cell-based; details: pre-treated with 0.4 μM Bortezomib 5 hr, then 75 and 100 μM peptide 4 hr
T1 construct: expressed in transfected cells; host or cells: HEK293
Procedure: FIG. 3B illustrates quantification of BRAF protein levels after rescue with Bortezomib. […] FIG. 3D illustrates quantification of the Western Blot to determine the half-life (t,1/2) of BRAF. Western blots are representative of at least three independent experiments.
HEK293 cells transiently transfected with wild-type BRAF were treated with cycloheximide.

[6] = system: MAPK pathway in the HCT116 cell line; test: MAPK pathway inhibition in HCT116 cells (immunoblotting); format: cell-based; details: 0-75 μM, 4 hr; read-out: IC50 of MAPK pathway inhibition (phospho-MEK, phospho-ERK, degradation of endogenous BRAF and MEK)
Procedure: as §1

[7] = target: T2, p61 BRAF^V600E (Homo sapiens, UniProt P15056, DEL169-380/V600E); test: Immunoblotting of HEK293 cells transfected with p61-BRAF^V600E; format: cell-based; details: increasing concentrations, 4 hr
T2 construct: expressed in transfected cells; host or cells: HEK293

[8] = dabrafenib alone, wild-type BRAF, 1 hr

T2 sequence (P15056 with tags, fused parts or gaps DEL169-380/V600E): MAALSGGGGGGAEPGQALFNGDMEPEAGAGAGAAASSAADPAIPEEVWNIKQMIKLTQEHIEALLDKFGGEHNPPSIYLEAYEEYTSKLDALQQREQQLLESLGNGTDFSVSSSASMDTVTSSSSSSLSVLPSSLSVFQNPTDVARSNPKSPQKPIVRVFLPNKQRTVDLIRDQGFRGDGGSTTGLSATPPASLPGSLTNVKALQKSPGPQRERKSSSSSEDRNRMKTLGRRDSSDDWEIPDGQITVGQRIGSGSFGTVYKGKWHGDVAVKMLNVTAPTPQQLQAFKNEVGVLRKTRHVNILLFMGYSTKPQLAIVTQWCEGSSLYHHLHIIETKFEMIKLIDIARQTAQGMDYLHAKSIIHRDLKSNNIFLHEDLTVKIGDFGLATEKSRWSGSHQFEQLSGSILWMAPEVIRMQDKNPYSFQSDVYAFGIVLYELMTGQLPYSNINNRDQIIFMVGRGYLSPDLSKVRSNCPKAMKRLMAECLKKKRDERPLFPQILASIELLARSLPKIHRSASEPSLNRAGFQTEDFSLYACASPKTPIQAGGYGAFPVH
T1 sequence (P15056 whole entry): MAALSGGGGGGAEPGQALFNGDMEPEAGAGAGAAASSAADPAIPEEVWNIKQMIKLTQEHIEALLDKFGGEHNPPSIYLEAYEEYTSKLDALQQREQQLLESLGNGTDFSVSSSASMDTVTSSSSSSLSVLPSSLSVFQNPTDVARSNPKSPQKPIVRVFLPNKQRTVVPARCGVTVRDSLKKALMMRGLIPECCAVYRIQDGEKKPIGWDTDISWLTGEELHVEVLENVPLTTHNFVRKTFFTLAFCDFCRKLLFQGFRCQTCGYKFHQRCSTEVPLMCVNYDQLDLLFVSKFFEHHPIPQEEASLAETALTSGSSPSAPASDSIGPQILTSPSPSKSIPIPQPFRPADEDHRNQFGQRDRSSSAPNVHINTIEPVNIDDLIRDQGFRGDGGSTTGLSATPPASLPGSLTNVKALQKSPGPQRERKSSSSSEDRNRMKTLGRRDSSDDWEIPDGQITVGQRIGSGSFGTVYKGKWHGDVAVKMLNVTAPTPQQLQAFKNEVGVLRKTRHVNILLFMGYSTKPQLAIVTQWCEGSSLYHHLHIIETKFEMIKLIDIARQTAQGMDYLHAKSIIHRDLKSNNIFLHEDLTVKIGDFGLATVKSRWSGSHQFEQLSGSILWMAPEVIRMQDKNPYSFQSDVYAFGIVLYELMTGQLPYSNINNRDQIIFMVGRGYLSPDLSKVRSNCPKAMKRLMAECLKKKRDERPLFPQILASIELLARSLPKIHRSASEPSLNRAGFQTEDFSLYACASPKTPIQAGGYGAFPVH

Compound: CCCS(=O)(=O)Nc1ccc(F)c(C(=O)c2c[nH]c3ncc(-c4ccc(Cl)cc4)cc23)c1F [vemurafenib, N-(3-{[5-(4-Chlorophenyl)-1H-pyrrolo[2,3-b]pyridin-3-yl]carbonyl}-2,4-difluorophenyl)propane-1-sulfonamide]
- synergy with braftide ([1]; braftide 75 μM 2 hr, then vemurafenib 1 hr): same synergy effect between vemurafenib and braftide was validated

Compound: GRKKRRQRRRPQ [TAT peptide, cell-penetrating peptide used as the negative control, reference compound]
- activity of BRAF (phospho-MEK1/2) [2]: no inhibition effect was observed
- cell death, HCT-15 ([3]; at concentrations up to 100 μM): no cell death was observed
- cell death, HCT116 ([4]; at concentrations up to 100 μM): no cell death was observed

Compound: Braftide conjugated with the TAT sequence (GRKKRRQRRRPQ; SEQ ID NO:2), a cell-penetrating peptide (GRKKRRQRRRPQTRHVNILLFM; also: possible unspecified modification flagged (lipid/PEG, unknown token)) [TAT-braftide]
- kinase activity of BRAF after proteasome inhibition [5]: still successfully inhibited the kinase activity of BRAF
- IC50 [6]: < 10 µM
- activity of BRAF (phospho-MEK1/2) [2]: significantly reduced the activity of BRAF in a dose-dependent manner
- protein levels of overexpressed BRAF and endogenous MEK1 [2]: markedly decreased in a dose-dependent manner
- EC50 ([3]; WST assay, read-out: EC50 of inhibition of cell growth, HCT-15): 9 µM
- pMEK and pERK levels [7]: A decrease in both pMEK and pERK levels was observed
- protein level of p61 [7]: not affected as dramatically as wild-type BRAF
- EC50 ([4]; WST assay, read-out: EC50 of inhibition of cell growth, HCT116): 5 µM

Compound: CC(C)(C)c1nc(-c2cccc(NS(=O)(=O)c3c(F)cccc3F)c2F)c(-c2ccnc(N)n2)s1 [dabrafenib, N-{3-[5-(2-aminopyrimidin-4-yl)-2-tert-butyl-1,3-thiazol-4-yl]-2-fluorophenyl}-2,6-difluorobenzenesulfonamide]
- concentration at which dabrafenib performed as an inhibitor [1, 8]: above 10 μM
- effect on MAPK signaling at lower concentrations [1, 8]: activated the MAPK signaling at lower concentrations
